22 compounds from patent US8394785B2, “Methods for the treatment and amelioration of urticaria” (Jado Technologies GmbH, priority 2005, dated 2013) can be followed below.

Series [1] has as its system Rat basophilic leukemia (RBL-2H3) cells. Description: Mast cell degranulation assay (β-hexosaminidase release). Type of series: cell-based. The following applies: for activity in the mast cell degranulation assay (in words): FIGS. 1 to 8; for IC50: 1 h, concentration at which 50% of maximal inhibition is reached, RBL-2H3, 60 min incubation with compound, DNP antigen challenge, read-out: ID50 (the source's name). How it is done: The assay measures release of β-hexosaminidase as a marker of release of various preformed pharmacological agents in response to clustering of the high affinity IgE receptor (FcεRI) by means of multivalent antigen-IgE complexes. Rat basophilic leukemia (RBL-2H3) cells, a commonly used model of mast cell degranulation, are sensitized with anti-DNP specific IgE and challenged with multivalent DNP-BSA. The release of β-hexosaminidase into the supernatant is measured by enzymatic conversion of the fluorogenic substrate 4-methylumbelliferyl-N-acetyl-β-D-glucosaminide to N-acetyl-β-D-glucosamine and highly fluorescent methylumbelliferone and quantified by fluorescence detection in a Tecan Safire™ plate reader.
RBL-2H3 cells obtained from the German Collection of Microorganisms and Cell Cultures (Braunschweig, Germany) were maintained in 70% Minimum Essential Medium with Earle's Salts/20% RPMI 1640/10% heat-inactivated fetal calf serum) supplemented with 2 mM GlutaMAX™-I in 5% CO2 at 37° C. and routinely checked to be free of mycoplasma contamination. Cells grown in 175 cm^2 flasks were split with 0.05% Trypsin/EDTA and resuspended in 20 ml fresh medium. One hundred and 50 μl cell suspension were plated per well into 24 well cluster plates (Costar, Schiphol-Rijk, Netherlands) and cells were used one or two days after plating, respectively.
Two to 24 hours before incubation with test compounds the medium was removed and cells were sensitized with 0.4 μg/ml anti-DNP IgE in fresh medium. Following sensitization, cells were washed once with warm TyB and incubated for 60 min with test compound at a maximum of 100 μM or the highest non-toxic concentration (total vehicle concentration adjusted to 1%) or 1% vehicle in TyB at 37° C. DNP-HSA (0.1 μg/ml final concentration) or buffer alone was added and cells incubated for 15 min at 37° C. Plates were centrifuged at 4° C. for 5 min at 250×g and immediately transferred to ice. Supernatants were collected and the cells lysed with lysis buffer. Hexosaminidase activity in supernatants and lysates was measured by incubating 25 μl aliquots with 100 μl MUG substrate solution in a 96-well plate at 37° C. for 30 min. The reaction was terminated by addition of 150 μl stop solution. Fluorescence was measured in a Tecan Safire™ plate reader at 365 nm excitation and 440 nm emission settings.
Each compound is tested in duplicates in at least three independent experiments. β-hexosaminidase release is calculated after subtraction of unspecific release (release without addition of antigen) using the formula: % degranulation=100×RFU supernatant/RFU lysate
Inhibition of β-hexosaminidase release with respect to control is calculated as
follows: % inhibition=100×(1−(RFU supernatant of compound/RFU supernatant of control))

Series [2] relates to membrane integrity (lactate dehydrogenase release). Kind of series: Cytotoxicity test / membrane integrity assay (Promega Cytotox-One), lactate dehydrogenase release. Conditions: for CD50: concentration at which 50% of maximal lactate dehydrogenase release is reached; for cytotoxicity (in words): Table 2.
Series [3] shares this test system.
Setting [4] is: Rattus norvegicus, RBL-2H3, 25 μM, read-out: maximum inhibition (concentration used).
Where [5] appears, read: Rattus norvegicus, RBL-2H3, at or 25 μM, read-out: inhibition of degranulation.
Where [6] appears, read: Rattus norvegicus, RBL-2H3, read-out: maximum inhibition (concentration used).

Structures are written as SMILES. “Also recorded” adds a separate entry of the source. Counter-ions that a name gives are not always drawn. Like-named read-outs stand apart in the source and are kept apart here. A value given as a limit tells only on which side of the number the result lay.

Consider `O=C(O)c1cc(=O)c2c(OCC(O)COc3cccc4oc(C(=O)O)cc(=O)c34)cccc2o1` [cromogylcic acid, reference compound], for which the “activity in the mast cell degranulation assay (in words)” value (“activity” for short) in series [1] was “no or only low activity”.
Take `CCCCCCCCCCCCCCCCSCC(COC)COP(=O)([O-])OCC[N+](C)(C)C` (centres unmarked) [Compound 4, 1-hexadecylmercapto-2-methoxymethyl-3-propyl phosphoric acid monocholine ester, reference compound]: the IC50 in series [1] (Rattus norvegicus) was 4.8 µM. Besides, the inhibition at 25 µM in series [1] (setting [4]) is 84%; in series [1] (setting [5]), above 75%.
On to `CCCCCCCC/C=C/CCCCCCCCOP(=O)([O-])OCC[N+](C)(C)C` [Compound 24, 1-elaidylphosphocholine (C18:1, trans)], for which the IC50 in series [1] (Rattus norvegicus) worked out at 2.9 µM. Also, the inhibition at 10 µM in series [1] (setting [6]) turned out to be 92%. The inhibition at 25 µM in series [1] (setting [5]) is above 75%. The compound also showed a CD50 in series [2] of 59.6 µM.
As for `CCCCCCCCCCCCCCCCCCOCC(COP(=O)([O-])OCC[N+](C)(C)C)OC` (centres unmarked) [Compound 5, edelfosine, reference compound], the IC50 in series [1] (Rattus norvegicus) was 6.2 µM. The inhibition at 25 µM in series [1] (setting [4]) was 79%; in series [1] (setting [5]), above 75%. For the same compound, the “cytotoxicity (in words)” value in series [2] is listed as “higher cytotoxicity”. The compound also came in with a CD50 in series [2] of 59.0 µM.
For `CCCCCCCCCCCCCCCCOC[C@H](COP(=O)([O-])OCC[N+]1(C)CCCC1)OC(C)=O` [Compound 8, pyrrolidino PAF C-16], the IC50 in series [1] (Rattus norvegicus) was 13.7 µM. The inhibition at 25 µM in series [1] (setting [4]) stood at 53%. Also, the CD50 in series [2] was 50.2 µM.
Regarding `CCCCCCCCCCCCCCCCOC[C@H](COP(=O)([O-])OCCCCCC[N+](C)(C)C)OC(C)=O` [Compound 16, 1-O-hexadecyl-2-acetyl-sn-glycero-3-phospho-(N,N,N-trimethyl)hexanolamine], the inhibition at 25 µM in series [1] (setting [4]) came out at 45%. Besides, in series [2], the CD50 was 51.3 µM.
Turning to `C/C=C/C(=O)O[C@H](COCCCCCCCCCCCCCCCC)COP(=O)([O-])OCCCCCC[N+](C)(C)C` [Compound 7, butenoyl PAF C-16], in series [1] (Rattus norvegicus), the IC50 turned out to be 11 µM. Also, the inhibition at 25 µM in series [1] (setting [4]) is 69%. For the same compound, the CD50 in series [2] amounted to 79.6 µM.
On to `CCCCCCCCCCCCCCCCOC[C@H](COP(=O)([O-])OCC[N+](C)(C)C)SC(C)=O` [Compound 12, 2-thio PAF C-16], for which the inhibition at 25 µM in series [1] (setting [4]) was found to be 41%. In addition, the CD50 in series [2] was 86.5 µM.
As for `CCCCCCCCCCCCCCCCOC[C@H](COP(=O)([O-])OCC[N+](C)(C)C)OCC` [Compound 2, 2-O-ethyl PAF C-16], the IC50 in series [1] (Rattus norvegicus) worked out at 3 µM. Moreover, the inhibition at 10 µM in series [1] (setting [6]) is 86%. The inhibition at 25 µM in series [1] (setting [5]) is above 75%. Moreover, in series [2], the CD50 turned out to be 57.2 µM.
On to `CCCCCCCCCCCCCCCCOCCCOP(=O)([O-])OCC[N+](C)(C)C` [Compound 26, 1-O-hexadecyl-propanediol-3-phosphocholine], for which the IC50 in series [1] (Rattus norvegicus) came to 3.1 µM. Further, in series [1] (setting [6]), the inhibition at 10 µM came to 90%. Moreover, in series [1] (setting [5]), the inhibition at 25 µM is above 75%.
On to `CCCCCCCCCCCCCCCCOC[C@H](COP(=O)([O-])OCC[N+](C)(C)C)OC` [Compound 1, 2-O-methyl PAF C-16], for which, in series [1] (Rattus norvegicus), the IC50 amounted to 2.9 µM. Further, the inhibition at 10 µM in series [1] (setting [6]) was 89%. For the same compound, in series [1] (setting [5]), the inhibition at 25 µM is above 75%. The compound also returned a CD50 in series [2] of 48.2 µM.
As to `CCCCCCCCCCCCCCCCOC[C@@H](O)COP(=O)([O-])OCC[N+](C)(C)C` [Compound 13, 1-hexadecyl-sn-glycero-3-phosphocholine 3-sn-lysophosphatidylcholine], in series [1] (setting [4]), the inhibition at 25 µM amounted to 41%. The same compound had a CD50 in series [2] of 58.8 µM.
In the case of `CCCCCCCCCCCCCCCCOC[C@H](CO)OC` [Compound 22, 1-O-hexa-decyl-2-O-methyl-sn-glycerol, reference compound], the “activity” value in series [1] is listed as “poor results”. Further, in series [1] (Rattus norvegicus, RBL-2H3, 100 μM, read-out: maximum inhibition (concentration used)), the inhibition at 100 µM was determined as 15%. The compound also displayed a CD50 in series [2] above 100 µM.
`CCCCCCCCCCCCCCCCCCOP(=O)([O-])OCC[N+](C)(C)C` [Compound 23, octadecylphosphocholine (C18:0)]: in series [1] (Rattus norvegicus), the IC50 is 2.6 µM. Further, in series [1] (setting [6]), the inhibition at 10 µM came to 82%. In addition, the inhibition at 25 µM in series [1] (setting [5]) was above 75%. Moreover, in series [2], the CD50 was above 50 µM.
For `CCCCCCCCCCCCCCCCOCC(COP(=O)([O-])OCC[N+](C)(C)C)OC(C)=O` (centres unmarked) [Compound 25, 3-O-hexadecyl-2-acetyl-sn-glycero-1-posphocholine], in series [1] (Rattus norvegicus), the IC50 stood at 3 µM. Moreover, the inhibition at 10 µM in series [1] (setting [6]) came to 82%. The inhibition at 25 µM in series [1] (setting [5]) is above 75%.
Consider `CN1CCC(=C2c3ccccc3CC(=O)c3sccc32)CC1` [ketotifen fumarate, reference compound], for which the “activity” value in series [1] is “no or only low activity”.
Take `CCCCCCCCCCCCCCCCOC[C@H](COP(=O)([O-])OCC[N+](C)(C)C)OC(C)=O` [Compound 14, 1-hexadecyl-2-acetyl-sn-glycero-3-phosphocholine]: the inhibition at 25 µM in series [1] (setting [4]) was 42%. The CD50 in series [3] stood at 57.7 µM.
On the same counts, the results for `CCCCCCCCCCCCCCCC(=O)OC[C@H](O)COP(=O)([O-])OCC[N+](C)(C)C` [Compound 20, 1-palmitoyl-2-hydroxy-sn-glycero-3-phosphocholine] are 26% and 70.3 µM.
In the case of `CCCCCCCCCCCCCCCCCCOCC(C)(C)COP(=O)([O-])OCC[N+](C)(C)C` [Compound 27, 1-O-octadecyl-(2,2-dimethyl)-propanediol-3-phosphocholine], the IC50 in series [1] (Rattus norvegicus) is 8 µM. The inhibition at 25 µM in series [1] (setting [4]) is 85%; in series [1] (setting [5]), above 75%.
As to `CCCCCCCCCCCCCCCCOC[C@H](COP(=O)([O-])OCC[N+](C)(C)C)OC(=O)CC` [Compound 28, 1-O-hexadecyl-2-propionyl-sn-glycero-3-phosphocholine], the IC50 in series [1] (Rattus norvegicus) was determined as 13.1 µM. The inhibition at 25 µM in series [1] (setting [4]) came out at 64%.
For the compound `CCCCCCCCCCCCCCCCCCOP(=O)([O-])OC1CC[N+](C)(C)CC1` [Compound 9, octadecyl-(N,N-dimethyl-piperidinio-4-yl)-phosphate, reference compound], the IC50 in series [1] (Rattus norvegicus) worked out at 2.8 µM. Moreover, the inhibition at 10 µM in series [1] (setting [6]) is 85%. Further, the inhibition at 25 µM in series [1] (setting [5]) was above 75%. Further, in series [2], the “cytotoxicity (in words)” value is on record as “less cytotoxic; also recorded: low toxicity” and the CD50 was 76.7 µM.
As to `CCCCCCCCCCCCOP(=O)([O-])OCC[N+](C)(C)C` [Compound 17, Dodecylphosphocholine], in series [1] (Rattus norvegicus), the IC50 is 7.1 µM. In addition, the inhibition at 25 µM in series [1] (setting [4]) was 76%; in series [1] (setting [5]), above 75%. The CD50 in series [2] is above 100 µM.
